Measured values reported in patent publication US20070110804A1, “Drug polymer complexes” (ROYER BIOMEDICAL, INC., priority 2003, published 2007).
Values after ≈ are worked out from the molar mass of the structure shown. Like-named read-outs stand apart in the source and are kept apart here.

Columns and labels:
[1] = Formation of a low-solubility polymer/drug complex (gel) on mixing polyanion sodium salt with the salt of the active ingredient
Description: A “yes” entry means that a complex of low solubility forms on mixing the sodium salt of the polymers and the salt of the active ingredient.

[2] = In vitro release profile of the drug polymer complex in PBS at 37° C.; assay type: physicochemical; settings: ½ dextran sulfate Mw 40,000 (40,000-50,000) and ½ Mw 500,000, FIG. 6
Procedure: Release profile: Dextran sulfate/amikacin wet gel (100 mg) was placed in 2 ml centrifuge tube. PBS buffer (500 μl) was added to the centrifuged tube. After incubation at 37° C. for 24 hrs, the mixture was centrifuged at 13,000 RPM for 5 minutes. The supernatant was removed and analyzed microbiologically for the presence of drug. The process was repeated at 24 hr intervals for 31 days. The amount of released drug in the eluate was calculated from a standard curve.
The release profile is illustrated in FIG. 1. The release profiles for the compounds of the other Figures were generated in a similar manner.

S. Aureus = settings: cited from earlier work
Enterobacter spp. = settings: cited from earlier work
P. Aeruginosa = settings: cited from earlier work
E. Coli = settings: cited from earlier work
[3] = Distribution of amikacin between gelatinous precipitate and supernatant on mixing amikacin sulfate with dextran sulfate (Na); assay type: physicochemical; settings: amikacin sulfate solution mixed with dextran sulfate (Na) solution
Description: As part of the normal preparation of a solid dosage form based on calcium sulfate, a solution of amikacin sulfate was mixed with a solution of dextran sulfate (Na).

[4] = mixing sodium salt of Dextran Sulfate-500 and salt of the active ingredient
[5] = mixing sodium salt of CMC-L (low viscosity carboxymethylcellulose) and salt of the active ingredient
[6] = mixing sodium salt of CMC-M (medium viscosity carboxymethylcellulose) and salt of the active ingredient

Molecule	complex of low solubility forms (yes/no), polymer Dextran Sulfate-500 [1, 4]	complex of low solubility forms (yes/no), polymer Dextran Sulfate-500 [1]	complex of low solubility forms (yes/no), polymer CMC-L [1, 5]	complex of low solubility forms (yes/no), polymer CMC-M [1, 6]	further results
CCN(CC)CCOC(=O)c1ccc(N)cc1 [Procaine]	yes				
CN(C)CCCN1c2ccccc2Sc2ccc(Cl)cc21 [Chlorpromazine]		yes			complex of low solubility forms (yes/no), polymer CMC-L [1]: yes; complex of low solubility forms (yes/no), polymer CMC-M [1]: yes
COc1ccc2c3c1O[C@H]1C(=O)CC[C@@]4(O)[C@@H](C2)N(C)CC[C@]314 [Oxycodone]	yes				release rate compared to all (500,000) dextran sulfate complex [2]: increases the release rate; release rate compared to all (500,000) dextran sulfate complex ([2]; listed as oxycodone): accelerated
NCC[C@H](O)C(=O)N[C@@H]1C[C@H](N)[C@@H](O[C@H]2O[C@H](CN)[C@@H](O)[C@H](O)[C@H]2O)[C@H](O)[C@H]1O[C@H]1O[C@H](CO)[C@@H](O)[C@H](N)[C@H]1O [Amikacin]		yes			MIC (S. Aureus): 1 µg/mL (≈ 1.71 µM); complex of low solubility forms (yes/no), polymer CMC-L [1]: no; MIC (Enterobacter spp.): 2 µg/mL (≈ 3.42 µM); MIC (P. Aeruginosa): 2 µg/mL (≈ 3.42 µM); MIC (E. Coli): 2 µg/mL (≈ 3.42 µM); amikacin included in the gelatinous precipitate [3]: > 90%; amikacin remaining in the supernatant [3]: < 10%
CN[C@H](CC(C)C)C(=O)N[C@H]1C(=O)N[C@@H](CC(N)=O)C(=O)N[C@H]2C(=O)N[C@H]3C(=O)N[C@H](C(=O)N[C@H](C(=O)O)c4cc(O)cc(O)c4-c4cc3ccc4O)[C@H](O)c3ccc(c(Cl)c3)Oc3cc2cc(c3O[C@@H]2O[C@H](CO)[C@@H](O)[C@H](O)[C@H]2O[C@H]2C[C@](C)(N)[C@H](O)[C@H](C)O2)Oc2ccc(cc2Cl)[C@H]1O [Vancomycin]		yes			complex of low solubility forms (yes/no), polymer CMC-L [1]: yes
[H]/N=C(/N)N[C@H]1[C@H](O)[C@@H](O)[C@H](O[C@@H]2O[C@@H](C)[C@](O)(C=O)[C@H]2O[C@@H]2O[C@@H](CO)[C@H](O)[C@@H](O)[C@@H]2NC)[C@@H](N/C(N)=N\[H])[C@@H]1O [Streptomycin]	yes				
CCCCNc1ccc(C(=O)OCCN(C)C)cc1 [Tetracaine]	yes		yes	yes	
CN(C)[C@@H]1C(O)=C(C(N)=O)C(=O)[C@@]2(O)C(O)=C3C(=O)c4c(O)cccc4[C@@](C)(O)[C@H]3[C@H](O)[C@@H]12 [Oxytetracycline]		yes			complex of low solubility forms (yes/no), polymer CMC-L [1]: yes; complex of low solubility forms (yes/no), polymer CMC-M [1]: yes
Neomycin	yes		no	no	
CC[C@H]1OC(=O)[C@H](C)[C@@H](O[C@H]2C[C@@](C)(OC)[C@@H](O)[C@H](C)O2)[C@H](C)[C@@H](O[C@@H]2O[C@H](C)C[C@H](N(C)C)[C@H]2O)[C@](C)(O)C[C@@H](C)C(=O)[C@H](C)[C@@H](O)[C@]1(C)O [Erythromycin]		yes			complex of low solubility forms (yes/no), polymer CMC-L [1]: no; complex of low solubility forms (yes/no), polymer CMC-M [1]: no
CCC(=O)C(CC(C)N(C)C)(c1ccccc1)c1ccccc1 (stereo not drawn) [Methadone]	yes		no	no	
CCCNC(C)C(=O)Nc1ccccc1C (stereo not drawn) [Prilocaine]		yes			
O=C1CC[C@@]2(O)[C@H]3Cc4ccc(O)c5c4[C@@]2(CCN3CC2CC2)[C@H]1O5 [Naltrexone]	yes		no	no	
NC[C@H]1O[C@H](O[C@H]2[C@H](O)[C@@H](O[C@H]3O[C@H](CO)[C@@H](O)[C@H](N)[C@H]3O)[C@H](N)C[C@@H]2N)[C@H](N)C[C@@H]1O [Tobramycin]	yes				
CN1CCc2cccc3c2[C@H]1Cc1ccc(O)c(O)c1-3 [Apomorphine]	yes				
C[C@H]1c2cccc(O)c2C(=O)C2=C(O)[C@]3(O)C(=O)C(C(N)=O)=C(O)[C@@H](N(C)C)[C@@H]3[C@@H](O)[C@@H]21 [Doxycycline]	yes		yes	yes	
COc1cccc2c1C(=O)c1c(O)c3c(c(O)c1C2=O)C[C@@](O)(C(=O)CO)C[C@@H]3O[C@H]1C[C@H](N)[C@H](O)[C@H](C)O1 [Doxorubicin]	yes		yes	yes	
CCCCOc1cc(C(=O)NCCN(CC)CC)c2ccccc2n1 [Dibucaine]	yes		yes	yes	
